Measurements from article PMC12028158, “Synthesis and In Vitro Evaluation of the Anticancer Effect of Novel Phosphonium Vindoline Derivatives” (International Journal of Molecular Sciences, 2025).
Like-named read-outs stand apart in the source and are kept apart here.

Experiments:
Assay type in all cases: cell-based
HOP-92 [1] = experiment: NCI60 five-dose screen; settings: Homo sapiens
NCI/ADR-RES = experiment: NCI60 five-dose screen; settings: Homo sapiens
K-562 [2] = experiment: NCI60 one-dose screen; settings: Homo sapiens
HT29 [3] = experiment: NCI60 one-dose screen; settings: Homo sapiens
BT-549 = experiment: NCI60 five-dose screen; settings: Homo sapiens
COLO 205 = experiment: NCI60 five-dose screen; settings: Homo sapiens
NCI-H226 = experiment: NCI60 one-dose screen; settings: Homo sapiens
TK-10 = experiment: NCI60 five-dose screen; settings: Homo sapiens
PC-3 [4] = experiment: NCI60 five-dose screen; settings: Homo sapiens
SK-OV-3 [5] = experiment: NCI60 five-dose screen; settings: Homo sapiens
PC-3 [6] = experiment: NCI60 one-dose screen; settings: Homo sapiens
A498 [7] = experiment: NCI60 five-dose screen; settings: Homo sapiens
HOP-92 [8] = experiment: NCI60 one-dose screen; settings: Homo sapiens
HL-60(TB) = experiment: NCI60 five-dose screen; settings: Homo sapiens
NCI-H460 = experiment: NCI60 five-dose screen; settings: Homo sapiens
MALME-3M = experiment: NCI60 one-dose screen; settings: Homo sapiens, read-out: Growth percent
SK-OV-3 [9] = experiment: NCI60 one-dose screen; settings: Homo sapiens
SF-268 = experiment: NCI60 one-dose screen; settings: Homo sapiens
Renal Cancer panel = experiment: NCI60 five-dose screen, panel mean; settings: Homo sapiens
EKVX [10] = experiment: NCI60 five-dose screen; settings: Homo sapiens
OVCAR-3 = experiment: NCI60 five-dose screen; settings: Homo sapiens
SK-MEL-2 = experiment: NCI60 one-dose screen; settings: Homo sapiens
KM12 = experiment: NCI60 one-dose screen; settings: Homo sapiens
RPMI-8226 = experiment: NCI60 one-dose screen; settings: Homo sapiens
K-562 [11] = experiment: NCI60 five-dose screen; settings: Homo sapiens, K562
SK-MEL-28 = experiment: NCI60 one-dose screen; settings: Homo sapiens
DU-145 = experiment: NCI60 one-dose screen; settings: Homo sapiens
SF-295 = experiment: NCI60 five-dose screen; settings: Homo sapiens
UACC-62 [12] = experiment: NCI60 five-dose screen; settings: Homo sapiens
786-0 = experiment: NCI60 one-dose screen; settings: Homo sapiens
SR = experiment: NCI60 one-dose screen; settings: Homo sapiens, read-out: Growth percent
HT29 [13] = experiment: NCI60 five-dose screen; settings: Homo sapiens, HT-29
A498 [14] = experiment: NCI60 one-dose screen; settings: Homo sapiens
SF-539 = experiment: NCI60 one-dose screen; settings: Homo sapiens
HS 578T = experiment: NCI60 one-dose screen; settings: Homo sapiens, read-out: Growth percent
OVCAR-4 = experiment: NCI60 five-dose screen; settings: Homo sapiens
SN12C = experiment: NCI60 one-dose screen; settings: Homo sapiens, read-out: Growth percent
U251 [15] = experiment: NCI60 five-dose screen; settings: Homo sapiens
ACHN = experiment: NCI60 one-dose screen; settings: Homo sapiens, read-out: Growth percent
EKVX [16] = experiment: NCI60 one-dose screen; settings: Homo sapiens, read-out: Growth percent
MDA-MB-435 = experiment: NCI60 five-dose screen; settings: Homo sapiens
HOP-62 = experiment: NCI60 five-dose screen; settings: Homo sapiens
U251 [17] = experiment: NCI60 one-dose screen; settings: Homo sapiens
UACC-62 [18] = experiment: NCI60 one-dose screen; settings: Homo sapiens
OVCAR-8 = experiment: NCI60 one-dose screen; settings: Homo sapiens
MOLT-4 = experiment: NCI60 one-dose screen; settings: Homo sapiens
A549/ATCC = experiment: NCI60 five-dose screen; settings: Homo sapiens

## CC[C@]12C=CCN3CC[C@@]4(c5ccc(OC)cc5N(C)[C@H]4[C@@](O)(C(=O)OC)[C@@H]1OC(=O)CCCC[P+](C1CCCCC1)(C1CCCCC1)C1CCCCC1)[C@@H]32 [10d]
HOP-92 [1]; HOP-92
  GI50: 1020 nM
NCI/ADR-RES
  GI50: 65500 nM
K-562 [2]; K562, read-out: Growth percent
  activity at 10 µM: 7.48%
HT29 [3]; HT-29, read-out: Growth percent
  activity at 10 µM: -24%
BT-549; BT-549
  GI50: 2450 nM
COLO 205; COLO 205
  GI50: 377 nM
NCI-H226; NCI-H226, read-out: Growth percent
  activity at 10 µM: -22%
TK-10; TK-10
  GI50: 3080 nM
PC-3 [4]; PC-3
  GI50: 1460 nM
SK-OV-3 [5]; SK-OV-3
  GI50: 2280 nM
PC-3 [6]; PC-3, read-out: Growth percent
  activity at 10 µM: 3.69%
A498 [7]; A498
  GI50: 13300 nM
HOP-92 [8]; HOP-92, read-out: Growth percent
  activity at 10 µM: -44.5%
HL-60(TB); HL-60
  GI50: 293 nM
NCI-H460; NCI-H460
  GI50: 2710 nM
MALME-3M; Malme-3M
  activity at 10 µM: -95.9%
SK-OV-3 [9]; SK-OV-3, read-out: Growth percent
  activity at 10 µM: -22.2%
SF-268; SF-268, read-out: Growth percent
  activity at 10 µM: -70.5%
Renal Cancer panel; read-out: GI50 Mean
  GI50: 8360 nM
EKVX [10]
  GI50: 3130 nM
OVCAR-3; OVCAR-3
  GI50: 1930 nM
SK-MEL-2; SK-MEL-2, read-out: Growth percent
  activity at 10 µM: -88%
KM12; KM12, read-out: Growth percent
  activity at 10 µM: -71.1%
RPMI-8226; RPMI-8226, read-out: Growth percent
  activity at 10 µM: -45%
K-562 [11]
  GI50: 983 nM
SK-MEL-28; SK-MEL-28, read-out: Growth percent
  activity at 10 µM: -86.5%
DU-145; DU-145, read-out: Growth percent
  activity at 10 µM: 9.57%
SF-295; SF-295
  GI50: 4400 nM
UACC-62 [12]; UACC-62
  GI50: 1530 nM
786-0; 786-0, read-out: Growth percent
  activity at 10 µM: -36%
SR
  activity at 10 µM: 19.5%
HT29 [13]
  GI50: 1430 nM
A498 [14]; A498, read-out: Growth percent
  activity at 10 µM: -0.04%
SF-539; SF-539, read-out: Growth percent
  activity at 10 µM: -93.9%
HS 578T; Hs-578T
  activity at 10 µM: -35%
OVCAR-4; OVCAR-4
  GI50: 2720 nM
SN12C
  activity at 10 µM: -57.9%
U251 [15]; U-251
  GI50: 640 nM
ACHN
  activity at 10 µM: 18.7%
EKVX [16]
  activity at 10 µM: 13.2%
MDA-MB-435; MDA-MB-435
  GI50: 2620 nM
HOP-62; HOP-62
  GI50: 3900 nM
U251 [17]; U-251, read-out: Growth percent
  activity at 10 µM: -87.9%
UACC-62 [18]; UACC-62, read-out: Growth percent
  activity at 10 µM: -96.9%
OVCAR-8; OVCAR-8, read-out: Growth percent
  activity at 10 µM: -6.33%
MOLT-4; MOLT-4, read-out: Growth percent
  activity at 10 µM: -5.16%
A549/ATCC; A549
  GI50: 3130 nM

## CC[C@]12C=CCN3CC[C@@]4(c5ccc(OC)cc5N(C)[C@H]4[C@@](O)(C(=O)OC)[C@@H]1OC(=O)CCC[P+](c1ccccc1)(c1ccccc1)c1ccccc1)[C@@H]32 [compound 3, reference compound]
HOP-92 [1]; HOP-92, Non-small Cell Lung Cancer, five-dose, read-out: GI50
  GI50: 66 nM
NCI/ADR-RES; Ovarian Cancer, five-dose, read-out: GI50
  GI50: > 50000 nM
K-562 [2]; K562, K-562, 10 μM, one-dose, read-out: Growth percent
  activity at 10 µM: 10.4%
HT29 [3]; HT-29, HT29, 10 μM, one-dose, read-out: Growth percent
  activity at 10 µM: 2.42%
BT-549; BT-549, Breast Cancer, five-dose, read-out: GI50
  GI50: 380 nM
COLO 205; COLO 205, COLO 205, Colon Cancer, five-dose, read-out: GI50
  GI50: 161 nM
NCI-H226; NCI-H226, 10 μM, one-dose, read-out: Growth percent
  activity at 10 µM: 14%
TK-10; TK-10, Renal Cancer, five-dose, read-out: GI50
  GI50: 1480 nM
PC-3 [4]; PC-3, Prostate Cancer, five-dose, read-out: GI50
  GI50: 204 nM
SK-OV-3 [5]; SK-OV-3, Ovarian Cancer, five-dose, read-out: GI50
  GI50: 894 nM
PC-3 [6]; PC-3, 10 μM, one-dose, read-out: Growth percent
  activity at 10 µM: 2.13%
A498 [7]; A498, Renal Cancer, five-dose, read-out: GI50
  GI50: 1710 nM
HOP-92 [8]; HOP-92, 10 μM, one-dose, read-out: Growth percent
  activity at 10 µM: -40%
HL-60(TB); HL-60, HL-60(TB), Leukemia, five-dose, read-out: GI50
  GI50: 124 nM
NCI-H460; NCI-H460, Non-small Cell Lung Cancer, five-dose, read-out: GI50
  GI50: 1220 nM
MALME-3M; MALME-3M, 10 μM, one-dose
  activity at 10 µM: -12.4%
SK-OV-3 [9]; SK-OV-3, 10 μM, one-dose, read-out: Growth percent
  activity at 10 µM: -21%
SF-268; SF-268, 10 μM, one-dose, read-out: Growth percent
  activity at 10 µM: 19.2%
Renal Cancer panel; mean over Renal Cancer panel, read-out: Mean GI50
  GI50: 3520 nM
EKVX [10]; Non-small Cell Lung Cancer, five-dose, read-out: GI50
  GI50: 470 nM
OVCAR-3; OVCAR-3, Ovarian Cancer, five-dose, read-out: GI50
  GI50: 369 nM
SK-MEL-2; SK-MEL-2, 10 μM, one-dose, read-out: Growth percent
  activity at 10 µM: -65.3%
KM12; KM12, 10 μM, one-dose, read-out: Growth percent
  activity at 10 µM: -27.2%
RPMI-8226; RPMI-8226, 10 μM, one-dose, read-out: Growth percent
  activity at 10 µM: -12.7%
K-562 [11]; K-562, Leukemia, five-dose, read-out: GI50
  GI50: 360 nM
SK-MEL-28; SK-MEL-28, 10 μM, one-dose, read-out: Growth percent
  activity at 10 µM: 20.9%
DU-145; DU-145, 10 μM, one-dose, read-out: Growth percent
  activity at 10 µM: 18%
SF-295; SF-295, CNS Cancer, five-dose, read-out: GI50
  GI50: 1450 nM
UACC-62 [12]; UACC-62, Melanoma, five-dose, read-out: GI50
  GI50: 222 nM
786-0; 786-0, 10 μM, one-dose, read-out: Growth percent
  activity at 10 µM: 20.6%
SR; 10 μM, one-dose
  activity at 10 µM: 9.57%
HT29 [13]; HT29, Colon Cancer, five-dose, read-out: GI50
  GI50: 266 nM
A498 [14]; A498, 10 μM, one-dose, read-out: Growth percent
  activity at 10 µM: 124%
SF-539; SF-539, 10 μM, one-dose, read-out: Growth percent
  activity at 10 µM: 16.2%
HS 578T; HS 578T, 10 μM, one-dose
  activity at 10 µM: 25.5%
OVCAR-4; OVCAR-4, Ovarian Cancer, five-dose, read-out: GI50
  GI50: 469 nM
SN12C; 10 μM, one-dose
  activity at 10 µM: 2.73%
U251 [15]; U-251, U251, CNS Cancer, five-dose, read-out: GI50
  GI50: 371 nM
ACHN; 10 μM, one-dose
  activity at 10 µM: 89.9%
EKVX [16]; 10 μM, one-dose
  activity at 10 µM: 10.3%
MDA-MB-435; MDA-MB-435, Melanoma, five-dose, read-out: GI50
  GI50: 278 nM
HOP-62; HOP-62, Non-small Cell Lung Cancer, five-dose, read-out: GI50
  GI50: 1370 nM
U251 [17]; U-251, U251, 10 μM, one-dose, read-out: Growth percent
  activity at 10 µM: 4.03%
UACC-62 [18]; UACC-62, 10 μM, one-dose, read-out: Growth percent
  activity at 10 µM: -59.3%
OVCAR-8; OVCAR-8, 10 μM, one-dose, read-out: Growth percent
  activity at 10 µM: 3.13%
MOLT-4; MOLT-4, 10 μM, one-dose, read-out: Growth percent
  activity at 10 µM: 5.41%
A549/ATCC; A549/ATCC, Non-small Cell Lung Cancer, five-dose, read-out: GI50
  GI50: 1350 nM
